From patent US20230120044A1, “AGROCHEMICAL ADJUVANTS” (Croda International Plc, priority 2020, published 2023)

Legend:
B. cinerea = assay: Adjuvancy with other fungicides for B. cinerea; type: cell-based, Botrytis cinerea
Experimental: Botrytis cinerea (ATCC 90479) was cultured on potato dextrose agar (PDA) for 7 days with diurnal UV cycles (12 h UV light and 12 h dark). Spores were harvested in a buffered, sterile saline solution (0.9% saline water with 1% Tween 80) and counted using a haemocytometer. The spore suspension was adjusted to a final concentration of 8.5×10^6 spores/mL to create a standardised inoculum. To prepare hyphal fragments for adjuvant testing, 8.5×10^4 spores were used to inoculate 10 mL of potato dextrose broth in a 150×25 mm tube. The tube was incubated at 220 RPM, 22° C. for 48 hours. To create hyphal fragments from the culture, the culture was transferred to a 50 mL plastic conical tube containing approximately 20 sterile 5 mm diameter glass beads and vortexed for 5 min. After vortexing the tube was allowed to stand for 5 min to allow large mycelial clumps to settle and then the top layer containing hyphal fragments was removed and used as inocula for growth inhibition assays. Fungicides and adjuvants were dissolved in methanol and added to molten PDA (˜50° C.) and then the agar was distributed in the wells of 12 well multiwell plates (1 mL/well). The plates were cooled to room temperature and 10 μL of hyphal inoculum was added to the centre of each well. The plates were incubated at 22° C. for 48 hours and then the colony diameter was measured using a digital caliper. The biological growth control consisted of hyphae and vehicle (0.07% methanol), the negative control was media and vehicle (0.07% methanol). To expand the functional characterisation of the lamellicolic anhydride adjuvant (Ia) was tested in combination with seven fungicides belonging to six different fungicide groups as classified by the Fungicide Resistance Action Committee (FRAC Code List 2018). Numbers indicate fold change improvement in fungal growth inhibition relative to the fungal test organisms treated with fungicide and adjuvant vehicle alone. n.t. indicates not tested.

Penicillium roqueforti = assay: Adjuvancy with other fungicides for other fungus, FT4; type: cell-based
Experimental: (§1) To evaluate the biological spectrum of activity, lamellicolic anhydride adjuvant (Ta) was tested in combination with seven fungicides against six different fungal test organisms belonging to five different genera.
(§2) Prior to evaluating the adjuvant effect of (Ia), the minimum inhibitory concentration (MIC) for each fungicide against each test organism was determined by measuring growth on agar plates containing decreasing concentrations of fungicide.
(§3) Once the MIC was determined, adjuvant testing was performed with the concentration of (Ta) fixed at 4 μg/mL and each fungicide at a concentration which inhibited growth of the fungus by 10-20%.
(§4) Fungal targets are: FT1 —Fusarium solani, FT2 —Fusarium oxysporum, FT3 —Alternaria infectorium, FT4 —Penicillium roqueforti, FT5 —Aspergillus flavus, FT6 —Cladosporium sp.
(§5) The numbers indicate fold change improvement in fungal growth inhibition relative to the fungal test organisms treated with fungicide and adjuvant vehicle alone. A value of 1 would indicate no effect on fungicidal activity, whilst a value >1 indicates improved fungicidal activity. n.t. indicates not tested.

Alternaria infectorium = assay: Adjuvancy with other fungicides for other fungus, FT3; type: cell-based
Experimental: as §1, §2, §3, §4, §5

Aspergillus flavus = assay: Adjuvancy with other fungicides for other fungus, FT5; type: cell-based
Experimental: as §1, §2, §3, §4, §5

Cladosporium sp. = assay: Adjuvancy with other fungicides for other fungus, FT6; type: cell-based; conditions: Ia 4 μg/mL + pyrimethanil 0.006 μg/mL
Experimental: as §1, §2, §3, §4, §5

Fusarium solani = assay: Adjuvancy with other fungicides for other fungus, FT1; type: cell-based; conditions: Ia 4 μg/mL + dimethomorph 12.8 μg/mL
Experimental: as §1, §2, §3, §4, §5

Fusarium oxysporum = assay: Adjuvancy with other fungicides for other fungus, FT2; type: cell-based; conditions: Ia 4 μg/mL + pyraclostrobin 0.01 μg/mL
Experimental: as §1, §2, §3, §4, §5

[1] = tested on: Botrytis cinerea (ATCC 90479); assay: Adjuvancy with pyraclostrobin, agar growth inhibition of hyphal inoculum; type: cell-based; conditions: for Fold Change in Growth Inhibition: vs pyraclostrobin alone, 48 hours, 22° C.
Experimental: Percent Inhibition—The percent inhibition will be understood to represent the amount the fungicide and/or adjuvant inhibits the visible growth of the microorganism after 48 hours incubation at 22° C. relative to vehicle treated controls. This is calculated using the following formula: […]
Fold Change—The fold change is a measure of the adjuvant/fungicide combination in inhibiting a microorganism compared to the fungicide alone. This indicates how the adjuvant performs relative to the fungicide alone. This is calculated using the following formula: […]
Botrytis cinerea (ATCC 90479) was cultured on potato dextrose agar (PDA) for 7 days with diurnal UV cycles (12 h UV light and 12 h dark). Spores were harvested in a buffered, sterile saline solution (0.9% saline water with 1% Tween 80) and counted using a haemocytometer. The spore suspension was adjusted to a final concentration of 8.5×10^6 spores/mL to create a standardised inoculum.
To prepare hyphal fragments for adjuvant testing, 8.5×10^4 spores were used to inoculate 10 mL of potato dextrose broth in a 150×25 mm tube. The tube was incubated at 220 RPM, 22° C. for 48 hours. To create hyphal fragments from the culture, the culture was transferred to a 50 mL plastic conical tube containing approximately 20 sterile 5 mm diameter glass beads and vortexed for 5 min. After vortexing the tube was allowed to stand for 5 min to allow large mycelial clumps to settle and then the top layer containing hyphal fragments was removed and used as inocula for growth inhibition assays.
Fungicides and adjuvants were dissolved in methanol and added to molten PDA (˜50° C.) and then the agar was distributed in the wells of 12 well multiwell plates (1 mL/well). The plates were cooled to room temperature and 10 μL of hyphal inoculum was added to the centre of each well. The plates were incubated at 22° C. for 48 hours and then the colony diameter was measured using a digital caliper. The biological growth control consisted of hyphae and vehicle (0.07% methanol), the negative control was media and vehicle (0.07% methanol).

[2] = Ia 4 μg/mL + iprodione 0.0015 μg/mL
[3] = Ia 4 μg/mL + mancozeb 0.2 μg/mL
[4] = Ia 4 μg/mL + pyraclostrobin 0.001 μg/mL

Cc1cc(O)c2c3c(c(O)cc(O)c13)C(=O)OC2=O [Lam 261 (Ia), Lamellicolic anhydride]
Fold Change in Growth Inhibition (B. cinerea; Lam 261 (Ia) 1 μg/mL + benomyl 0.0015 μg/mL): 16.45 | Fold Change in Growth Inhibition (B. cinerea; Lam 261 (Ia) 1 μg/mL + captan 0.008 μg/mL): 17.25 | Fold Change in Growth Inhibition (B. cinerea; Lam 261 (Ia) 1 μg/mL + captan 0.04 μg/mL): 27.32 | Fold Change in Growth Inhibition (B. cinerea; Lam 261 (Ia) 1 μg/mL + dimethomorph 0.8 μg/mL): 17.72 | Fold Change in Growth Inhibition (B. cinerea; Lam 261 (Ia) 1 μg/mL + mancozeb 0.1 μg/mL): 1.89 | Fold Change in Growth Inhibition (B. cinerea; Lam 261 (Ia) 1 μg/mL + mancozeb 0.2 μg/mL): 2.44 | Fold Change in Growth Inhibition (B. cinerea; Lam 261 (Ia) 1 μg/mL + metalaxyl 0.8 μg/mL): 31.72 | Fold Change in Growth Inhibition (B. cinerea; Lam 261 (Ia) 1 μg/mL + metalaxyl 1.6 μg/mL): 27.22 | Fold Change in Growth Inhibition (B. cinerea; Lam 261 (Ia) 1 μg/mL + prothioconazole 1.0 μg/mL): 5.53 | Fold Change in Growth Inhibition (B. cinerea; Lam 261 (Ia) 1 μg/mL + tebuconazole 0.00018 μg/mL): 15.13 | Fold Change in Growth Inhibition (B. cinerea; Lam 261 (Ia) 1 μg/mL + tebuconazole 0.00075 μg/mL): 9.37 | Fold Change in Growth Inhibition (B. cinerea; Lam 261 (Ia) 1 μg/mL, benomyl 0 μg/mL (adjuvant alone)): 1.00 | Fold Change in Growth Inhibition (B. cinerea; Lam 261 (Ia) 1 μg/mL, captan 0 μg/mL (adjuvant alone)): 1.00 | Fold Change in Growth Inhibition (B. cinerea; Lam 261 (Ia) 1 μg/mL, dimethomorph 0 μg/mL (adjuvant alone)): 1.00 | Fold Change in Growth Inhibition (B. cinerea; Lam 261 (Ia) 1 μg/mL, mancozeb 0 μg/mL (adjuvant alone)): 1.00 | Fold Change in Growth Inhibition (B. cinerea; Lam 261 (Ia) 1 μg/mL, metalaxyl 0 μg/mL (adjuvant alone)): 1.00 | Fold Change in Growth Inhibition (B. cinerea; Lam 261 (Ia) 1 μg/mL, prothioconazole 0 μg/mL (adjuvant alone)): 1.00 | Fold Change in Growth Inhibition (B. cinerea; Lam 261 (Ia) 1 μg/mL, tebuconazole 0 μg/mL (adjuvant alone)): 1.00 | Fold Change in Growth Inhibition (B. cinerea; Lam 261 (Ia) 2 μg/mL + benomyl 0.0015 μg/mL): 20.43 | Fold Change in Growth Inhibition (B. cinerea; Lam 261 (Ia) 2 μg/mL + captan 0.008 μg/mL): 32.35 | Fold Change in Growth Inhibition (B. cinerea; Lam 261 (Ia) 2 μg/mL + captan 0.04 μg/mL): 30.95 | Fold Change in Growth Inhibition (B. cinerea; Lam 261 (Ia) 2 μg/mL + dimethomorph 0.4 μg/mL): 31.0 | Fold Change in Growth Inhibition (B. cinerea; Lam 261 (Ia) 2 μg/mL + dimethomorph 0.8 μg/mL): 16.06 | Fold Change in Growth Inhibition (B. cinerea; Lam 261 (Ia) 2 μg/mL + mancozeb 0.1 μg/mL): 3.06 | Fold Change in Growth Inhibition (B. cinerea; Lam 261 (Ia) 2 μg/mL + mancozeb 0.2 μg/mL): 2.83 | Fold Change in Growth Inhibition (B. cinerea; Lam 261 (Ia) 2 μg/mL + metalaxyl 0.8 μg/mL): 45.13 | Fold Change in Growth Inhibition (B. cinerea; Lam 261 (Ia) 2 μg/mL + metalaxyl 1.6 μg/mL): 32.46 | Fold Change in Growth Inhibition (B. cinerea; Lam 261 (Ia) 2 μg/mL + prothioconazole 1.0 μg/mL): 26.91 | Fold Change in Growth Inhibition (B. cinerea; Lam 261 (Ia) 2 μg/mL + tebuconazole 0.00018 μg/mL): 21.61 | Fold Change in Growth Inhibition (B. cinerea; Lam 261 (Ia) 2 μg/mL + tebuconazole 0.00075 μg/mL): 9.79 | Fold Change in Growth Inhibition (B. cinerea; Lam 261 (Ia) 2 μg/mL, benomyl 0 μg/mL (adjuvant alone)): 1.00 | Fold Change in Growth Inhibition (B. cinerea; Lam 261 (Ia) 2 μg/mL, captan 0 μg/mL (adjuvant alone)): 1.00 | Fold Change in Growth Inhibition (B. cinerea; Lam 261 (Ia) 2 μg/mL, dimethomorph 0 μg/mL (adjuvant alone)): 1.00 | Fold Change in Growth Inhibition (B. cinerea; Lam 261 (Ia) 2 μg/mL, mancozeb 0 μg/mL (adjuvant alone)): 1.00 | Fold Change in Growth Inhibition (B. cinerea; Lam 261 (Ia) 2 μg/mL, metalaxyl 0 μg/mL (adjuvant alone)): 1.00 | Fold Change in Growth Inhibition (B. cinerea; Lam 261 (Ia) 2 μg/mL, prothioconazole 0 μg/mL (adjuvant alone)): 1.00 | Fold Change in Growth Inhibition (B. cinerea; Lam 261 (Ia) 2 μg/mL, tebuconazole 0 μg/mL (adjuvant alone)): 1.00 | fold change improvement in fungal growth inhibition (Penicillium roqueforti; Ia 4 μg/mL + captan 0.04 μg/mL): 1.17 | fold change improvement in fungal growth inhibition (Penicillium roqueforti; Ia 4 μg/mL + dimethomorph 0.8 μg/mL): 1.85 | fold change improvement in fungal growth inhibition (Penicillium roqueforti; [2]): 1.65 | fold change improvement in fungal growth inhibition (Penicillium roqueforti; [3]): 1.63 | fold change improvement in fungal growth inhibition (Penicillium roqueforti; Ia 4 μg/mL + prothioconazole 0.00375 μg/mL): 1.52 | fold change improvement in fungal growth inhibition (Penicillium roqueforti; [4]): 1.27 | fold change improvement in fungal growth inhibition (Penicillium roqueforti; Ia 4 μg/mL + pyrimethanil 0.02 μg/mL): 1.31 | fold change improvement in fungal growth inhibition (Alternaria infectorium; Ia 4 μg/mL + dimethomorph 0.2 μg/mL): 1.25 | fold change improvement in fungal growth inhibition (Alternaria infectorium; Ia 4 μg/mL + mancozeb 0.1 μg/mL): 2.45 | fold change improvement in fungal growth inhibition (Alternaria infectorium; Ia 4 μg/mL + prothioconazole 0.006 μg/mL): 1.50 | fold change improvement in fungal growth inhibition (Alternaria infectorium; [4]): 1.18 | fold change improvement in fungal growth inhibition (Aspergillus flavus; Ia 4 μg/mL + dimethomorph 12.8 μg/mL): 1.27 | fold change improvement in fungal growth inhibition (Aspergillus flavus; [2]): 1.72 | fold change improvement in fungal growth inhibition (Aspergillus flavus; [3]): 2.01 | fold change improvement in fungal growth inhibition (Aspergillus flavus; Ia 4 μg/mL + prothioconazole 0.012 μg/mL): 1.28 | fold change improvement in fungal growth inhibition (Cladosporium sp.): 1.67 | fold change improvement in fungal growth inhibition (Fusarium solani): 1.63 | fold change improvement in fungal growth inhibition (Fusarium oxysporum): 1.63

C/C=C/[C@@H]1[C@H]2C[C@@H](C)CC[C@@H]2C(C)=C[C@H]1C(=O)c1c(O)c(-c2ccc(O)cc2)c[nH]c1=O [Ilicicolin H (A), ilicicolin H]
Fold Change in Growth Inhibition ([1]; adjuvant 1.56 μg/mL + pyraclostrobin 0.1 μg/mL): 3.32 | Fold Change in Growth Inhibition ([1]; adjuvant 1.56 μg/mL + pyraclostrobin 0.2 μg/mL): 1.93 | Fold Change in Growth Inhibition ([1]; adjuvant 1.56 μg/mL + pyraclostrobin 0.4 μg/mL): 1.36 | Fold Change in Growth Inhibition ([1]; adjuvant 1.56 μg/mL + pyraclostrobin 0.8 μg/mL): 1.04 | Fold Change in Growth Inhibition ([1]; adjuvant 3.13 μg/mL + pyraclostrobin 0.1 μg/mL): 3.51 | Fold Change in Growth Inhibition ([1]; adjuvant 3.13 μg/mL + pyraclostrobin 0.2 μg/mL): 2.43 | Fold Change in Growth Inhibition ([1]; adjuvant 3.13 μg/mL + pyraclostrobin 0.4 μg/mL): 1.35 | Fold Change in Growth Inhibition ([1]; adjuvant 3.13 μg/mL + pyraclostrobin 0.8 μg/mL): 1.21 | Fold Change in Growth Inhibition ([1]; adjuvant 6.25 μg/mL + pyraclostrobin 0.1 μg/mL): 3.62 | Fold Change in Growth Inhibition ([1]; adjuvant 6.25 μg/mL + pyraclostrobin 0.2 μg/mL): 1.88 | Fold Change in Growth Inhibition ([1]; adjuvant 6.25 μg/mL + pyraclostrobin 0.4 μg/mL): 1.26 | Fold Change in Growth Inhibition ([1]; adjuvant 6.25 μg/mL + pyraclostrobin 0.8 μg/mL): 0.96 | inherent fungicidal activity on their own ([1]; adjuvant alone, at any of the concentrations tested): did not demonstrate any inherent fungicidal activity
